Measured values taken from a melting point compilation (Tetko et al.).

Row | melting point | SMILES
1 | 50 to 52 °C | C=CS(=O)(=O)c1cccc(Br)c1
2 | 174 to 176 °C | CC1CN(C(=O)c2ccc(N)cc2)CC(C)O1 (stereo not drawn)
3 | 93 to 95 °C | Cc1n[nH]cc1N
4 | 153 to 155 °C | Cc1ccc(C)c(OCC(=O)NN)c1
5 | 84 to 86 °C | NCC(O)COc1cccc(F)c1 (stereo not drawn)
6 | 132 to 134 °C | CC(C)(C)c1noc(-c2cc(Cl)ccc2N)n1
7 | 159 to 161 °C | O=C(O)c1cc(COc2c(Cl)cccc2Cl)on1
8 | 130 to 132 °C | O=C(NC1CCCNC1)c1ccccc1 (stereo not drawn)
9 | 67 to 69 °C | O=[N+]([O-])c1ccc(Cl)cc1S(=O)(=O)Cl
10 | 48 to 50 °C | CC(=O)N1CCC(CCl)CC1
11 | 120 to 122 °C | O=C(O)C(=O)NCCCc1ccccc1
12 | 82 to 84 °C | CCOc1ccccc1C(=O)N1CCNCC1
13 | 62 to 64 °C | CC(C)(C)C(N)CN1CCc2ccccc2C1 (stereo not drawn)
14 | 184 to 186 °C | O=C(O)c1cc(Cl)ccc1NS(=O)(=O)c1ccccc1
15 | 154 to 156 °C | Nc1ccc(O)cc1C(=O)NCc1ccccc1
16 | 161 to 163 °C | NC(=O)NC(CCC(=O)O)C(=O)O (stereo not drawn)
17 | 180 to 182 °C | O=C(O)Cc1ccc(NS(=O)(=O)c2ccc(F)cc2)cc1
18 | 29 to 34 °C | Clc1ccc(OCCCBr)cc1
19 | 79 to 81 °C | CN(CCCNC(=O)CCl)S(C)(=O)=O
20 | 81 to 83 °C | CC(=O)CC(=O)Nc1cccc(F)c1
21 | 137 to 139 °C | COc1cc(C=O)ccc1OCC(=O)c1ccc(Cl)c(Cl)c1
22 | 239 to 241 °C | O=[N+]([O-])c1cccc2ncnc(O)c12
23 | 124 to 126 °C | O=C(CCl)NC(c1ccc(F)cc1)c1cccs1 (stereo not drawn)
24 | 82 to 84 °C | CCC(=O)Nc1ccc(N)cc1

Row | melting point | SMILES
25 | 251 to 253 °C | COc1ccc(-c2nnc(S)o2)cc1OC
26 | 117 to 119 °C | CC(C)(C)OC(=O)N1C[C@H](C(=O)O)[C@@H](C(F)(F)F)C1
27 | 127 to 129 °C | O=C(O)Cc1coc2cc(O)ccc12
28 | 238 to 240 °C | Cc1cccc2[nH]c(CCC(=O)O)nc12
29 | 115 to 117 °C | O=S(=O)(Cl)Cc1cc(-c2ccccc2)no1
30 | 170 to 172 °C | O=C(O)COc1ccc2c3c(c(=O)oc2c1)CCC3
31 | 216 to 220 °C | O=C1Cc2ccc(Br)cc2N1
32 | 146 to 148 °C | CCCS(=O)(=O)N1CCC(C(=O)O)CC1
33 | 119 to 121 °C | O=C1CCCc2nc(-c3ccccc3)sc21
34 | 156 to 158 °C | O=C1C=CC=NC1=C(O)Nc1cnccn1
35 | 105 to 107 °C | Nc1ncc(Cc2cccc(Br)c2)s1
36 | 47 to 49 °C | CC(C)(C)OC(=O)Cc1cccc(N)c1
37 | 300 to 302 °C | COC(=O)c1ccc(-c2ccc(C(=O)O)cc2)cc1
38 | 123 to 125 °C | CNC(=O)COc1cccc(O)c1
39 | 44 to 46 °C | COCCOc1ccc(C#N)cc1
40 | 148 to 150 °C | Cc1ccnc(N)c1C#N
41 | 93 to 95 °C | NCc1cccc(N)n1
42 | 78 to 80 °C | Cc1ccccc1NCC(=O)N1CCCCC1
43 | 158 to 160 °C | NC(=O)c1c(-c2ccc(C(F)(F)F)cc2)csc1N
44 | 141 to 143 °C | O=C(O)CCCn1c(=O)oc2ccccc21
45 | 145 to 147 °C | COc1ccc(C(N)=O)c(O)c1
46 | 52 to 54 °C | COC(=O)c1cc(F)cc(I)c1N
47 | 78 to 80 °C | OC(c1cccc(F)c1)c1ccccn1 (stereo not drawn)
48 | 55 to 57 °C | Cc1ccc(OC(F)F)c(C(=O)CBr)c1

Row | melting point | SMILES
49 | 164 to 166 °C | COc1ccc(C)cc1-n1nnnc1S
50 | 201 to 203 °C | O=C1COc2c(Cl)cccc2N1
51 | 248 to 250 °C | O=C(O)c1cnc2c(cnn2Cc2cccnc2)c1
52 | 126 to 128 °C | COc1ccc(CNc2ccncc2)cc1
53 | 139 to 141 °C | O=S1(=O)CC(O)C(NCc2ccco2)C1 (stereo not drawn)
54 | 196 to 198 °C | O=C(O)C1CC2COCC(C1)C2=O (stereo not drawn)
55 | 78 to 80 °C | CCOC(=O)c1ncoc1-c1scnc1C
56 | 61 to 63 °C | O=C1CCC(=O)N1CC1CO1 (stereo not drawn)
57 | 84 to 86 °C | CCN(CC)c1ccnc(NN)n1
58 | 218 to 220 °C | O=Cc1ccc(C(=O)O)cc1Cl
59 | 87 to 89 °C | CCOC(=O)c1cnn(-c2cccc(N)c2)c1C(F)(F)F
60 | 76 to 78 °C | Cc1ccc(S(=O)(=O)N2CCOCC2)cc1NC(=O)CCl
61 | 122 to 124 °C | Cc1cc(Cn2cc(Br)cn2)oc1C(=O)O
62 | 109 to 111 °C | CC(C)Oc1cnc(C(=O)O)cn1
63 | 154 to 156 °C | CCNS(=O)(=O)c1ccc(F)c(C(=O)O)c1
64 | 200 to 202 °C | CC(=O)Nc1ccc(S(=O)(=O)N2CCC(=NO)CC2)cc1
65 | 139 to 141 °C | Cc1ccc(Br)c(C(=O)O)c1
66 | 110 to 112 °C | CNS(=O)(=O)c1ccc(N)cc1
67 | 56 to 58 °C | Cc1cc(CCCC(=O)O)c(C)s1
68 | 139 to 141 °C | Cc1ccc(-c2nonc2N)cc1
69 | 127 to 129 °C | COc1cccc(C(=O)c2c(N)sc3c2CCC3)c1
70 | 59 to 61 °C | ClCc1cc(Cl)c2c(c1)OCCO2
71 | 93 to 96 °C | NS(=O)(=O)c1cccc(NC(=O)c2ccc(Cl)cc2)c1
72 | 129 to 131 °C | c1cn(-c2cncnc2)cn1

The next lines start with the compound.

Row | SMILES | melting point
73 | Cc1cccc(F)c1C(=O)O | 114 to 116 °C
74 | Cc1cc(NC(=O)C(C)SCC(=O)O)no1 (stereo not drawn) | 125 to 127 °C
75 | c1cnnc(NCC2CNCCO2)c1 (stereo not drawn) | 148 to 150 °C
76 | Cc1ccc(NC(=O)NCC2CCCNC2)cc1 (stereo not drawn) | 161 to 163 °C
77 | O=C(Nc1ccccc1C(=O)O)c1ccc(Cl)cc1 | 208 to 210 °C
78 | NC(=S)CN1C(=O)c2ccccc2C1=O | 173 to 175 °C
79 | OC1CNCC1N1CCCC1 (stereo not drawn) | 82 to 84 °C
80 | CCc1nc(C(=O)O)nn1-c1ccccc1Cl | 164 to 166 °C
81 | Nc1ccc(-n2cc[nH]c2=O)cc1 | 217 to 219 °C
82 | O=[N+]([O-])c1c(NC2CC2)cccc1NC1CC1 | 116 to 118 °C
83 | CC(C(=O)O)c1ccc(S(=O)(=O)N(C)C)cc1 (stereo not drawn) | 122 to 124 °C
84 | O=C(O)c1nc[nH]n1 | 132 to 136 °C
85 | Cc1ccc(NC(=O)CCl)cc1S(=O)(=O)N1CCCCCC1 | 74 to 76 °C
86 | Nc1ccc(-c2csc(N)n2)cc1 | 178 to 180 °C
87 | NS(=O)(=O)c1ccc(S)nc1 | 242 to 244 °C
88 | Oc1ccc2cccc(O)c2n1 | 293 to 295 °C
89 | O=S(=O)(c1ccc(Cl)cc1)N1CCNCC1 | 99 to 103 °C
90 | Cc1cc(C)nc(-n2nc(C)cc2N)n1 | 173 to 175 °C
91 | ClCc1nnc(-c2cccc(Br)c2)o1 | 74 to 76 °C
92 | O=C(O)CCSc1ccccc1Br | 104 to 106 °C
93 | Cc1cc(Cl)nc(-c2cccc([N+](=O)[O-])c2)n1 | 147 to 149 °C
94 | O=C(O)c1ccccc1OCc1ccc(Br)cc1 | 119 to 121 °C
95 | CN(C)C(=O)N1CCCC(C(=O)O)C1 (stereo not drawn) | 123 to 125 °C
96 | CC(C)(C)Sc1ccc(C(N)=S)cn1 | 178 to 180 °C

Row | SMILES | melting point
97 | O=C(CCCl)NC(=O)NCc1ccccc1 | 117 to 119 °C
98 | N#Cc1cccc(/C=C/C(=O)O)c1 | 246 to 248 °C
99 | CCN(c1ccccc1)S(=O)(=O)c1cc(C(=O)O)ccc1C | 160 to 162 °C
100 | Oc1cc(C2CC2)ncn1 | 188 to 190 °C
101 | O=C(O)c1cc2c([nH]c1=O)CCC2 | 273 to 275 °C
102 | CN1N=C(C(N)=O)CCC1=O | 169 to 171 °C
103 | COC(=O)c1cc(N)cc(C(F)(F)F)c1 | 78 to 80 °C
104 | COc1ccc(NC(=O)CCCl)c([N+](=O)[O-])c1 | 97 to 99 °C
105 | Cc1c(S(N)(=O)=O)sc2c(Cl)cccc12 | 261 to 263 °C
106 | O=C1CC(c2cccc(F)c2)CN1 (stereo not drawn) | 77 to 79 °C
107 | CC(C)c1ccc(C2(O)CCC(=O)CC2)cc1 | 134 to 136 °C
108 | O=C(O)C1(O)CCN(Cc2ccccc2)C1 (stereo not drawn) | 173 to 175 °C
109 | O=Ic1ccccc1 | 199 to 201 °C
110 | O=C(O)[C@H](Cc1ccccc1)N1C(=O)c2ccccc2C1=O | 179 to 181 °C
111 | O=C(CCl)c1ccc(F)c(Cl)c1 | 37 to 39 °C
112 | O=C1CC(c2ccc(Cl)cc2)N1 (stereo not drawn) | 90 to 92 °C
113 | O=[N+]([O-])c1sc(Cl)nc1Cl | 38 to 40 °C
114 | O=C1CCc2cc(C(=O)c3c(F)cccc3F)ccc2N1 | 248 to 250 °C
115 | NC1(C(=O)O)CCOCC1 | 268 to 270 °C
116 | O=C(NCCO)c1ccccc1 | 60 to 62 °C
117 | O=C(O)C1CCCN1S(=O)(=O)c1cccs1 (stereo not drawn) | 99 to 101 °C
118 | COc1cc(OC)cc(C(O)CN)c1 (stereo not drawn) | 92 to 94 °C
119 | Nc1ccc(Cn2cnc3ccccc32)cc1 | 177 to 179 °C
120 | Cc1ccc(N)cc1-n1nnnc1C | 139 to 141 °C

Row | SMILES | melting point
121 | Clc1cc(-n2cccn2)ccn1 | 111 to 113 °C
122 | CCCS(=O)(=O)Nc1ccc(C(=O)O)cc1 | 187 to 189 °C
123 | Cc1ccccc1-c1csc(N)n1 | 80 to 82 °C
124 | O=C(CCl)N1CCC(c2nc3ccccc3s2)CC1 | 59 to 61 °C
125 | Cc1nn(C)c(C)c1-c1cc(C(=O)O)[nH]n1 | 281 to 283 °C
126 | CC(C)CC(=O)Nc1ccc(Cl)c(C(=O)O)c1 | 174 to 176 °C
127 | O=C(c1ccc(Cl)cc1)N1CCNCC1 | 80 to 82 °C
128 | CN(C)S(=O)(=O)c1ccc(Cl)c(C(=O)NCCCCCC(=O)O)c1 | 84 to 86 °C
129 | Cc1ccc(S(N)(=O)=O)s1 | 118 to 120 °C
130 | COc1ccc(-c2cc(N)on2)c(OC)c1OC | 161 to 163 °C
131 | CN(Cc1ccccc1)C(=O)c1ccccc1C(=O)O | 153 to 155 °C
132 | Cc1ccc(-c2nnc(S)o2)cc1C | 195 to 197 °C
133 | Cn1ncc2c(Cl)nc(Cl)nc21 | 86 to 88 °C
134 | COC(=O)C(C)Cn1cc(Br)cn1 (stereo not drawn) | 43 to 45 °C
135 | CN(C)C(=O)c1cccc(C(=O)O)c1 | 134 to 136 °C
136 | Nc1ccnn1Cc1ccc(Cl)c(F)c1 | 68 to 70 °C
137 | Clc1ccc(SCc2nc(Cl)c3c4c(sc3n2)CCC4)cc1 | 71 to 75 °C
138 | Cc1ccc(-c2nc(N)sc2CC(=O)O)cc1C | 265 to 267 °C
139 | COc1ccc(NC(=O)c2ccc(C(=O)O)s2)cc1 | 247 to 249 °C
140 | COC(=O)c1cccc(OCC(F)(F)F)c1 | 56 to 58 °C
141 | COc1ccc(C(=O)Nc2nc(C)cs2)cc1N | 164 to 166 °C
142 | CC(CCOc1ccccc1)C(=O)O (stereo not drawn) | 76 to 78 °C
143 | CCOC(=O)C1CCN(S(=O)(=O)Cl)CC1 | 38 to 40 °C
